Source: US9938292B2 (GUANGDONG ZHONGSHENG PHARMACEUTICAL CO., LTD, priority 2014, dated 2018)

What follows are molecules tested on Hedgehog signaling pathway (assay: Gli-Luc luciferase reporter gene assay in C3H10T1/2/Gli-Luc cells under Shh-N stimulation). Settings: 24 h, luciferase RLU, read-out: biological activity: IC50 of the inhibitory activities of compounds on the hedgehog pathway.
Type: cell-based
Summary of the method: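 IC50 derived by curve fitting of luciferase RLU against log compound concentration. Stable C3H10T1/2/Gli-Luc cells, seeded overnight, were co-treated 24 h with serially diluted compound (7 points, duplicate wells) and 30 nM Shh-N-containing HEK293 conditioned medium before lysis and luminescence readout.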

| Structure (SMILES) | IC50 |
| --- | --- |
| COc1c(-c2cnc(N3C[C@@H](C)O[C@@H](C)C3)cn2)cnc2c(-c3ccc(C#N)cc3)cccc12 [Embodiment 177] | ≤ 50 nM |

Same assay, conditions: Mus musculus, C3H 10T1/2, 24 h, luciferase RLU, read-out: biological activity: IC50 of the inhibitory activities of compounds on the hedgehog pathway

| Structure (SMILES) | IC50 |
| --- | --- |
| COc1c(-c2ccc(C(=O)N3C[C@@H](C)O[C@@H](C)C3)s2)cnc2c(-c3ccc(C#N)cc3)cccc12 [Embodiment 178, 4-(3-(5-((2S,6R)-2,6-dimethylmorpholine-4-carbonyl)thiophen-2-yl)-4-methoxyquinolin-8-yl)benzonitrile] | 100 to 500 nM |
| COc1c(-c2csc(N3C[C@@H](C)O[C@@H](C)C3)n2)cnc2c(-c3ccc(C#N)cc3)cccc12 [Embodiment 179, 4-(3-(2-(2,6-dimethylmorpholin-4-yl)thiazol-4-yl)-4-methoxyquinolin-8-yl) benzonitrile] | 500 to 1000 nM |
| CCC(=O)N1[C@H](C)CN(c2ccc(-c3cnc4c(-c5ccc(C#N)cc5)cccc4c3OC)cc2)C[C@@H]1C [Embodiment 180, 4-(3-(4-((3S, 5R)-3,5-dimethyl-4-propionylpiperazin-1-yl)phenyl)-4-methoxyquinolin-8-yl)benzonitrile] | ≤ 50 nM |
| COc1c(-c2ccc(N3C[C@@H](C)N(C(=O)c4ccccc4)[C@@H](C)C3)cc2)cnc2c(-c3ccc(C#N)cc3)cccc12 [Embodiment 181] | ≤ 50 nM |
| COC(=O)N1[C@H](C)CN(c2ccc(-c3cnc4c(-c5ccc(C#N)cc5)cccc4c3OC)cc2)C[C@@H]1C [Embodiment 182] | ≤ 50 nM |
| CCOC(=O)N1[C@H](C)CN(c2ccc(-c3cnc4c(-c5ccc(C#N)cc5)cccc4c3OC)cc2)C[C@@H]1C [Embodiment 183] | 50 to 100 nM |
| CCCOC(=O)N1[C@H](C)CN(c2ccc(-c3cnc4c(-c5ccc(C#N)cc5)cccc4c3OC)cc2)C[C@@H]1C [Embodiment 184] | 50 to 100 nM |
| COc1c(-c2ccc(N3C[C@@H](C)N(C(=O)C(C)(C)O)[C@@H](C)C3)cc2)cnc2c(-c3ccc(C#N)cc3)cccc12 [Embodiment 185] | 100 to 500 nM |
| COc1c(-c2ccc(N3C[C@@H](C)N(C(=O)c4ccccn4)[C@@H](C)C3)cc2)cnc2c(-c3ccc(C#N)cc3)cccc12 [Embodiment 186] | ≤ 50 nM |
| COc1c(-c2ccc(N3C[C@@H](C)N(C(=O)c4ncc[nH]4)[C@@H](C)C3)cc2)cnc2c(-c3ccc(C#N)cc3)cccc12 [Embodiment 187] | ≤ 50 nM |
| COc1c(-c2ccc(N3C[C@@H](C)N(S(C)(=O)=O)[C@@H](C)C3)nc2)cnc2c(-c3ccc(C#N)cc3)cccc12 [Embodiment 188, 4-(3-(6-(4-methylsulfonyl-3,5-dimethylpiperazin-1-yl)pyridin-3-yl)-4-methoxyquinolin-8-yl)benzonitrile] | ≤ 50 nM |
| COc1c(-c2ccc(N3C[C@@H](C)N(C(=O)CO)[C@@H](C)C3)nc2)cnc2c(-c3ccc(C#N)cc3)cccc12 [Embodiment 189, 4-(3-(6-(4-(2-hydroxyacetyl)-3,5-dimethylpiperazin-1-yl)pyridin-3-yl)-4-methoxyquinolin-8-yl)benzonitrile] | ≤ 50 nM |
| COc1c(-c2ccc(N3Cc4nnc(C(F)(F)F)n4C(C)C3)cc2)cnc2c(-c3ccc(C#N)cc3)cccc12 (centres unmarked) [Embodiment 190, 4-(4-methoxy-3-(4-(5-methyl-3-(trifluoromethyl)-5,6-dihydro-[1,2,4]triazolo[4,3-a]pyrazin-7(8H)-yl)phenyl)quinolin-8-yl)benzonitrile] | ≤ 50 nM |
| COc1c(-c2ccc(N3CC(C)N(C(C)=O)C(C(C)(C)O)C3)cc2)cnc2c(-c3ccc(C#N)cc3)cccc12 (centres unmarked) [Embodiment 191, 4-(3-(4-(4-acetyl-3-(2-hydroxypropan-2-yl)-5-methylpiperazin-1-yl)phenyl)-4-methoxyquinolin-8-yl)benzonitrile] | ≤ 50 nM |
| COc1c(-c2ccc(N3C[C@@H](C(C)(C)O)O[C@@H](C)C3)cc2)cnc2c(-c3ccc(C#N)cc3)cccc12 [Embodiment 192, 4-(3-(4-((2S, 6S)-2-(2-hydroxypropan-2-yl)-6-methylmorpholino)phenyl)-4-methoxyquinolin-8-yl)benzonitrile] | ≤ 50 nM |
| COc1c(-c2ccc(N3C[C@@H](C)N(C(=O)C(C)F)[C@@H](C)C3)nc2)cnc2c(-c3ccc(C#N)cc3)cccc12 (stereo partly drawn) [Embodiment 193, 4-(3-(6-((3S, 5R)-4-(2-fluoropropanoyl)-3,5-dimethylpiperazin-1-yl)pyridin-3-yl)-4-methoxyquinolin-8-yl)benzonitrile] | 100 to 500 nM |
| COc1c(-c2ccc(N3C[C@@H](C)N(C(=O)C(C)(F)F)[C@@H](C)C3)nc2)cnc2c(-c3ccc(C#N)cc3)cccc12 [Embodiment 194] | ≤ 50 nM |
| COc1c(-c2ccc(N3C[C@@H](C)N(C(=O)C(C)O)[C@@H](C)C3)nc2)cnc2c(-c3ccc(C#N)cc3)cccc12 (some centres unmarked) [Embodiment 195] | 50 to 100 nM |
| COC(=O)N1[C@H](C)CN(c2ccc(-c3cnc4c(-c5ccc(C#N)cc5)cccc4c3OC)cn2)C[C@@H]1C [Embodiment 196] | 100 to 500 nM |
| COc1c(-c2ccc(N3C[C@@H](C)N(C(=O)CC(F)(F)F)[C@@H](C)C3)nc2)cnc2c(-c3ccc(C#N)cc3)cccc12 [Embodiment 197] | 500 to 1000 nM |
| COc1c(-c2ccc(N3C[C@@H](C)N(C(=O)CN)[C@@H](C)C3)nc2)cnc2c(-c3ccc(C#N)cc3)cccc12 [Embodiment 198] | 50 to 100 nM |
| COc1c(-c2ccc(N3C[C@@H](C)N(C(=O)C(C)N)[C@@H](C)C3)nc2)cnc2c(-c3ccc(C#N)cc3)cccc12 (some centres unmarked) [Embodiment 199] | 100 to 500 nM |
| COc1c(-c2ccc(N3C[C@@H](C)N(C(=O)c4cccnc4)[C@@H](C)C3)cc2)cnc2c(-c3ccc(C#N)cc3)cccc12 [Embodiment 200] | ≤ 50 nM |

| Structure (SMILES) | IC50 |
| --- | --- |
| COc1c(-c2ccc(N3C[C@@H](C)N(C(=O)c4ccncc4)[C@@H](C)C3)cc2)cnc2c(-c3ccc(C#N)cc3)cccc12 [Embodiment 201] | ≤ 50 nM |
| CCC(=O)N1[C@H](C)CN(c2ccc(-c3cnc4c(-c5ccc(C#N)cc5C)cccc4c3OC)cn2)C[C@@H]1C [Embodiment 202] | ≤ 50 nM |
| COc1c(-c2ccc(N3C[C@@H](C)N(C(=O)c4cncc(C)c4)[C@@H](C)C3)cc2)cnc2c(-c3ccc(C#N)cc3)cccc12 [Embodiment 203] | ≤ 50 nM |
| CCC(=O)N1[C@H](C)CN(c2ccc(-c3cnc4c(-c5ccc(C#N)cc5)cccc4c3OC)cn2)C[C@@H]1C [Embodiment 204] | ≤ 50 nM |
| CCC(=O)N1[C@@H]2CC[C@H]1CN(c1ccc(-c3cnc4c(-c5ccc(C#N)cc5)cccc4c3OC)cn1)C2 [Embodiment 205, 4-(4-methoxy-3-(6-(8-propionyl-3,8-diazabicyclo[3.2.1]octan-3-yl)pyridin-3-yl)quinolin-8-yl)benzonitrile] | 50 to 100 nM |
| COc1c(-c2ccc(N3C[C@@H](C)N(c4nccs4)[C@@H](C)C3)nc2)cnc2c(-c3ccc(C#N)cc3)cccc12 [Embodiment 206, 4-(3-(6-((3S,5R)-3,5-dimethyl-4-(thiazol-2-yl)piperazin-1-yl)pyridin-3-yl)-4-methoxyquinolin-8-yl)benzonitrile] | ≤ 50 nM |
| COc1c(N2CCN(C(=O)Cc3ccncc3)CC2)cnc2c(-c3ccc(C#N)cc3)cccc12 [Embodiment 207, 4-(4-methoxy-3-(4-(2-(pyridin-4-yl)acetyl)piperazin-1-yl)quinolin-8-yl)benzonitrile] | 100 to 500 nM |
| COc1c(N2CCNCC2)cnc2c(-c3ccc(C#N)cc3)cccc12 [Embodiment 208] | 100 to 500 nM |
| COc1c(N2CCN(C(=O)Nc3ccncc3)CC2)cnc2c(-c3ccc(C#N)cc3)cccc12 [Embodiment 209] | ≤ 50 nM |
| COc1c(N2CCN(C(=O)NC3CCCCC3)CC2)cnc2c(-c3ccc(C#N)cc3)cccc12 [Embodiment 210] | ≤ 50 nM |
| COc1c(N2CCN(C(=O)Nc3cccc(C)c3)CC2)cnc2c(-c3ccc(C#N)cc3)cccc12 [Embodiment 211] | ≤ 50 nM |
| COc1c(N2CCN(C(=O)NC3CCOCC3)CC2)cnc2c(-c3ccc(C#N)cc3)cccc12 [Embodiment 212] | ≤ 50 nM |
| COc1c(N2CCN(C(=O)N(C)C3CCOCC3)CC2)cnc2c(-c3ccc(C#N)cc3)cccc12 [Embodiment 213] | ≤ 50 nM |
| COc1c(N2CCN(C(=O)CC(C)(C)O)CC2)cnc2c(-c3ccc(C#N)cc3)cccc12 [Embodiment 214] | ≤ 50 nM |
| COc1c(N2CCN(C(C)=O)CC2)cnc2c(-c3ccc(C#N)cc3)cccc12 [Embodiment 215] | 100 to 500 nM |
| COc1c(N2CCN(C(=O)CC3CCOCC3)CC2)cnc2c(-c3ccc(C#N)cc3)cccc12 [Embodiment 216] | 100 to 500 nM |
| COc1c(N2CCN(c3cc(C)nc(C)c3)CC2)cnc2c(-c3ccc(C#N)cc3)cccc12 [Embodiment 217, 4-(3-(4-(2,6-dimethylpyridin-4-yl)piperazin-1-yl)-4-methoxyquinolin-8-yl)benzonitrile] | 100 to 500 nM |
| CC(C)(O)c1ccc(N2CCN(c3cnc4c(-c5ccc(C#N)cc5)cccc4c3C(F)(F)F)CC2)nc1 [Embodiment 218, 4-(3-(4-(5-(2-hydroxypropan-2-yl)pyridin-2-yl)piperazin-1-yl)-4-(trifluoromethyl)quinolin-8-yl)benzonitrile] | ≤ 50 nM |
| CC1CN(c2cnc3c(-c4ccc(C#N)cc4)cccc3c2Br)CCN1c1ccc(C(C)(C)O)cn1 (centres unmarked) [Embodiment 219, 4-(4-bromo-3-(4-(5-(2-hydroxypropan-2-yl)pyridin-2-yl)-3-methylpiperazin-1-yl)quinolin-8-yl)benzonitrile] | ≤ 50 nM |
| COc1c(N2CCN(c3ccc(C(C)(C)O)cn3)CC2)cnc2c(-c3ccc(C#N)cc3)cccc12 [Embodiment 220, 4-(3-(4-(5-(2-hydroxypropan-2-yl)pyridin-2-yl)piperazin-1-yl)-4-methoxyquinolin-8-yl)benzonitrile] | ≤ 50 nM |
| COc1c(N2CCN(c3cnc(C(C)(C)O)cn3)CC2)cnc2c(-c3ccc(C#N)cc3)cccc12 [Embodiment 221] | ≤ 50 nM |
| COc1c(N2CCN(c3ccc(C(C)(C)O)c(C(F)(F)F)n3)CC2)cnc2c(-c3ccc(C#N)cc3)cccc12 [Embodiment 222] | ≤ 50 nM |
| COc1c(N2CCN(c3ncc(C(C)(C)O)cc3C(F)(F)F)CC2)cnc2c(-c3ccc(C#N)cc3)cccc12 [Embodiment 223] | 100 to 500 nM |
